Experimental data published in the OPERA property sets (Mansouri et al. 2018).
In brackets after ≈: the same amount, converted by molar mass.

SMILES	solubility (25 °C)	further results
C1=CCCC1	7.85 mM (≈ 535 µg/mL)	
O=C1CN(N=Cc2ccc([N+](=O)[O-])o2)C(=O)N1		solubility (24 °C): 0.334 mM (≈ 79.5 µg/mL)
CC=CCCl		solubility: 11 mM (≈ 1000 µg/mL)
CCC(O)C(C)(C)C (stereo unspecified)	70.6 mM (≈ 8200 µg/mL)	
COC(=O)C(=O)OC	511 mM (≈ 60300 µg/mL)	
Clc1ccc2c(c1)Oc1c(Cl)c(Cl)c(Cl)c(Cl)c1O2		solubility (20 °C): 3.37e-07 mM (≈ 0.00012 µg/mL)
CN1c2ccccc2Sc2ccc(CC(=O)O)cc21		solubility (30 °C): 0.114 mM (≈ 31 µg/mL)
O=c1[nH]cnc2nc[nH]c12		solubility (23 °C): 5.14 mM (≈ 700 µg/mL)
O=C1NC(=O)C(c2ccccc2)(c2ccccc2)N1		solubility (22 °C): 0.127 mM (≈ 32 µg/mL)
CC(C(=O)O)C(=O)O	5750 mM (≈ 679000 µg/mL)	
O=C(O)COc1ccc(Cl)cc1Cl	3.06 mM (≈ 677 µg/mL)	
Cc1cc2c3ccccc3ccc2c2ccccc12		solubility (27 °C): 0.000268 mM (≈ 0.065 µg/mL)
Oc1nc(O)c2nccnc2n1		solubility (20 °C): 7.62 mM (≈ 1250 µg/mL)
NS(=O)(=O)c1cc2c(cc1Cl)N=CNS2(=O)=O		solubility (30 °C): 0.899 mM (≈ 266 µg/mL)
CCNc1nc(NC(C)(C)C)nc(OC)n1		solubility (20 °C): 0.577 mM (≈ 130 µg/mL)
CCCCOC(=O)CC		solubility (20 °C): 11.5 mM (≈ 1500 µg/mL)
c1ccc2c(c1)ccc1c2ccc2c3ccccc3ccc21		solubility (20 °C): 1.55e-05 mM (≈ 0.00431 µg/mL)
c1ccc2c(c1)Oc1ccccc1O2	0.00489 mM (≈ 0.901 µg/mL)	
Cc1cc(=O)[nH]c(=O)[nH]1		solubility (22 °C): 55.5 mM (≈ 7000 µg/mL)
C=CCC1(C(C)CCC)C(=O)NC(=S)NC1=O (stereo unspecified)	0.348 mM (≈ 88.5 µg/mL)	
O=c1ccc2ccccc2[nH]1		solubility (20 °C): 7.25 mM (≈ 1050 µg/mL)

SMILES	solubility (25 °C)	further results
Fc1cc(F)c(F)c(F)c1	4.95 mM (≈ 742 µg/mL)	
Cc1cc2ccccc2c2ccc3ccccc3c12		solubility (27 °C): 0.000256 mM (≈ 0.062 µg/mL)
C=CCCCC=C	0.458 mM (≈ 44 µg/mL)	
COc1ccc2c(c1)N(C[C@H](C)CN(C)C)c1ccccc1S2	0.0609 mM (≈ 20 µg/mL)	
CCOc1ccc(NC(N)=O)cc1		solubility (21 °C): 6.71 mM (≈ 1210 µg/mL)
Clc1cccc(-c2ccccc2)c1	0.0192 mM (≈ 3.63 µg/mL)	
CCc1ccc(O)cc1	33.5 mM (≈ 4090 µg/mL)	
CC(=O)Oc1ccccc1C(=O)O	25.5 mM (≈ 4600 µg/mL)	
CC(C)(C)CC(=O)OCC(=O)[C@@]1(O)CC[C@H]2[C@@H]3CCC4=CC(=O)CC[C@]4(C)[C@H]3[C@@H](O)C[C@@]21C	0.00308 mM (≈ 1.42 µg/mL)	
c1ccc(Cc2ccccc2)cc1	0.0838 mM (≈ 14.1 µg/mL)	
CN(C)CCN(Cc1cccs1)c1ccccn1		solubility (30 °C): 2.3 mM (≈ 601 µg/mL)
Clc1ccc(-c2cc(Cl)ccc2Cl)cc1	0.000555 mM (≈ 0.143 µg/mL)	
CCc1ccc(CC)cc1		solubility (20 °C): 0.185 mM (≈ 24.8 µg/mL)
C/C=C/C=C/C(=O)O		solubility (30 °C): 22.3 mM (≈ 2500 µg/mL)
Clc1ccc(-c2c(Cl)cc(Cl)c(Cl)c2Cl)c(Cl)c1		solubility (20 °C): 3.37e-05 mM (≈ 0.0122 µg/mL)
O=C(O)c1cc(Cl)ccc1[N+](=O)[O-]	48 mM (≈ 9670 µg/mL)	
CC(Oc1ccc(Cl)cc1)C(=O)O (stereo unspecified)	7.33 mM (≈ 1470 µg/mL)	
CNC(=O)ON=C(CSC)C(C)(C)C		solubility (22 °C): 23.8 mM (≈ 5200 µg/mL)
C1=CCCCCC1	0.686 mM (≈ 66 µg/mL)	
Cc1cccc(N)c1		solubility (20 °C): 140 mM (≈ 15000 µg/mL)
OC[C@H]1O[C@@H](n2cnc3c(O)ncnc32)[C@H](O)[C@@H]1O		solubility (20 °C): 58.9 mM (≈ 15800 µg/mL)

SMILES	solubility (25 °C)	further results
CN(C)C(=O)NC1CCCCCCC1		solubility (20 °C): 6.05 mM (≈ 1200 µg/mL)
C[C@H]1c2cccc(O)c2C(=O)C2=C(O)[C@]3(O)C(=O)C(C(N)=O)=C(O)[C@@H](N(C)C)[C@@H]3[C@@H](O)[C@@H]21	1.42 mM (≈ 630 µg/mL)	
S=C=NCc1ccccc1	0.73 mM (≈ 109 µg/mL)	
CCCC(=O)CC	147 mM (≈ 14700 µg/mL)	
N[C@@H](Cc1ccc(O)c(O)c1)C(=O)O		solubility (20 °C): 25.4 mM (≈ 5000 µg/mL)
S=C=Nc1cccc(Br)c1	0.0822 mM (≈ 17.6 µg/mL)	
CCCCC=O	136 mM (≈ 11700 µg/mL)	
O=[N+]([O-])O[C@H]1CO[C@H]2[C@@H]1OC[C@H]2O[N+](=O)[O-]	2.33 mM (≈ 550 µg/mL)	
CC(C)I		solubility (20 °C): 8.24 mM (≈ 1400 µg/mL)
CN=C=S		solubility (20 °C): 104 mM (≈ 7600 µg/mL)
O=C=O	33.5 mM (≈ 1470 µg/mL)	
CCC1(C2=CCCCCC2)C(=O)NC(=O)NC1=O	0.999 mM (≈ 250 µg/mL)	
CCCCCCCCN	1.55 mM (≈ 200 µg/mL)	
CCCCCCc1ccccc1	0.00556 mM (≈ 0.902 µg/mL)	
CN1C(=O)C(C)(C2=CCCCC2)C(=O)N=C1O (stereo unspecified)	1.84 mM (≈ 435 µg/mL)	
Cc1ccccc1OCC(O)CO (stereo unspecified)		solubility (20 °C): 64.8 mM (≈ 11800 µg/mL)
CCC(C)N (stereo unspecified)		solubility (20 °C): 1530 mM (≈ 112000 µg/mL)
CCCCC(=O)CCCC		solubility (30 °C): 2.55 mM (≈ 363 µg/mL)
COP(=S)(NC(C)C)Oc1ccc(Cl)cc1Cl (stereo unspecified)	0.0159 mM (≈ 5 µg/mL)	
C=CCc1ccc(O)c(OC)c1	27.4 mM (≈ 4500 µg/mL)	
O=c1cc(O)cc[nH]1		solubility (20 °C): 56.3 mM (≈ 6250 µg/mL)

SMILES	solubility (25 °C)	further results
NC(=O)c1cc(Cl)cc(Cl)c1N		solubility: 8.29 mM (≈ 1700 µg/mL)
Cc1ccc(C)c2c(C)cccc12	0.0123 mM (≈ 2.1 µg/mL)	
O=C(O)c1ccccc1C(=O)Nc1cccc2ccccc12	0.687 mM (≈ 200 µg/mL)	
COc1cc(-c2ccc(N)c(OC)c2)ccc1N	0.246 mM (≈ 60 µg/mL)	
COP(=S)(OC)SCc1nc(N)nc(N)n1		solubility (20 °C): 0.853 mM (≈ 240 µg/mL)
CCCCCCCCCc1ccc(O)cc1	0.0318 mM (≈ 7 µg/mL)	
Cc1ccccc1S(N)(=O)=O	9.46 mM (≈ 1620 µg/mL)	
CC(=O)OCC(=O)[C@@]1(O)CCC2C3CCC4=CC(=O)CC[C@]4(C)C3[C@@H](O)C[C@@]21C (stereo partly specified)	0.0349 mM (≈ 14.1 µg/mL)	
CCc1ccccc1CC		solubility (20 °C): 0.53 mM (≈ 71.1 µg/mL)
CC(=O)N=c1sc(S(N)(=O)=O)nn1C		solubility: 14.8 mM (≈ 3500 µg/mL)
CC1(C)[C@H](C(=O)O)CC[C@]1(C)C(=O)O	38 mM (≈ 7600 µg/mL)	
COc1ccccc1C(=O)O		solubility (30 °C): 32.9 mM (≈ 5000 µg/mL)
Cc1cc(OC(=O)N(C)C)n(-c2ccccc2)n1		solubility: 8.15 mM (≈ 2000 µg/mL)
CCOc1ccc2nc(S(N)(=O)=O)sc2c1		solubility: 0.155 mM (≈ 40 µg/mL)
CCCCCCC(=O)O	21.6 mM (≈ 2820 µg/mL)	
CC(C)OC(C)(C)C	4.3 mM (≈ 500 µg/mL)	
OCCCBr		solubility (20 °C): 1020 mM (≈ 142000 µg/mL)
CCCOC(=O)c1ccccc1C(=O)OCCC		solubility (20 °C): 0.432 mM (≈ 108 µg/mL)
